Consider 1 molecule from paper PMC6594753, “Cystic fibrosis drug ivacaftor stimulates CFTR channels at picomolar concentrations” (eLife, 2019).

In the assay the target is T1, WT CFTR (Homo sapiens, UniProt P13569).
T1 construct: expressed in transfected cells; host or cells: Xenopus laevis oocytes injected with cRNA transcribed from pGEMHE-CFTR
Description: Single-channel recording in excised inside-out patches, kinetic analysis of microscopic patches. It counts as biochemical. Here is the method:
Patch pipette solution contained (in mM): 136 NMDG-Cl, 2 MgCl2, 5 HEPES, pH = 7.4 with NMDG. Bath solution contained (in mM): 134 NMDG-Cl, 2 MgCl2, 5 HEPES, 0.5 EGTA, pH = 7.1 with NMDG. MgATP (2 mM) was added from a 400 mM aqueous stock solution (pH = 7.1 with NMDG). Before each experiment 300 nM catalytic subunit of PKA (Sigma-Aldrich Kft., Budapest, Hungary) was applied for ~1 min to phosphorylate CFTR channels. Vx-770 (Selleck Chemicals) was diluted into the bath solution either from a ‘1x saturated’ aqueous stock solution (see above, concentration ~62 nM), or from a commercially obtained 10 mM stock dissolved in DMSO (Selleck Chemicals). Following patch excision the patch pipette was moved into a flow chamber, and recordings were done under continuous superfusion of the cytosolic patch surface. Solution compositions were exchanged using computer-driven electronic valves (solution exchange time constant <50 ms). After each recording day perfusion tubings were extensively washed with distilled water. Although supersaturated solutions of Vx-770 were not employed here, any perfusion tubing that had ever been in contact with a given concentration of Vx-770 was subsequently used only for solutions that contained the same, or higher, concentrations of the drug. After every 5–6 experimental days the entire perfusion system was replaced. Currents were recorded at 25°C, at a membrane potential of −40 mV, digitized at 10 kHz, Gaussian-filtered at 2 kHz, and recorded to disk (Axopatch 200B, Digidata 1322A, Pclamp9 (Molecular Devices, RRID: SCR_011323)). For display purposes, currents are shown filtered at 10 Hz and sampled at 20 Hz, and expanded single-channel traces (Figure 2b, Figure 4d) are shown filtered at 50 Hz and sampled at 250 Hz.
Segments of current recording originating from 1 to 7 active channels were digitally filtered at 50 Hz, and idealized by half-amplitude threshold crossing. Steady-state open probabilities in 2 mM ATP, before or during application of Vx-770 or after its removal (Figure 2c), were calculated from the events lists as the time-average of the fraction of open channels. A closed-open-blocked (C-O-B) kinetic scheme, which separates brief (~10 ms) flickery closures (to state B) from long (~1 s) interburst closures (to state C), was fitted by maximum likelihood to the set of dwell-time histograms for all conductance levels, to obtain microscopic transition rates rCO, rOC, rOB, and rBO, while accounting for a fixed dead time of 6 ms ([Csanády, 2000]). The software is freely available upon request. Mean burst (τb) and interburst (τib) durations were calculated as τb=(1/rOC)(1 + rOB/rBO) and τib=1/rCO, and channel opening and closing rates (Figure 2c) defined as 1/τib and 1/τb, respectively. […]

The mark [1] stands for this setting: single channel, 0.05x saturated (~3 nM) Vx-770.

T1 sequence (P13569 whole entry): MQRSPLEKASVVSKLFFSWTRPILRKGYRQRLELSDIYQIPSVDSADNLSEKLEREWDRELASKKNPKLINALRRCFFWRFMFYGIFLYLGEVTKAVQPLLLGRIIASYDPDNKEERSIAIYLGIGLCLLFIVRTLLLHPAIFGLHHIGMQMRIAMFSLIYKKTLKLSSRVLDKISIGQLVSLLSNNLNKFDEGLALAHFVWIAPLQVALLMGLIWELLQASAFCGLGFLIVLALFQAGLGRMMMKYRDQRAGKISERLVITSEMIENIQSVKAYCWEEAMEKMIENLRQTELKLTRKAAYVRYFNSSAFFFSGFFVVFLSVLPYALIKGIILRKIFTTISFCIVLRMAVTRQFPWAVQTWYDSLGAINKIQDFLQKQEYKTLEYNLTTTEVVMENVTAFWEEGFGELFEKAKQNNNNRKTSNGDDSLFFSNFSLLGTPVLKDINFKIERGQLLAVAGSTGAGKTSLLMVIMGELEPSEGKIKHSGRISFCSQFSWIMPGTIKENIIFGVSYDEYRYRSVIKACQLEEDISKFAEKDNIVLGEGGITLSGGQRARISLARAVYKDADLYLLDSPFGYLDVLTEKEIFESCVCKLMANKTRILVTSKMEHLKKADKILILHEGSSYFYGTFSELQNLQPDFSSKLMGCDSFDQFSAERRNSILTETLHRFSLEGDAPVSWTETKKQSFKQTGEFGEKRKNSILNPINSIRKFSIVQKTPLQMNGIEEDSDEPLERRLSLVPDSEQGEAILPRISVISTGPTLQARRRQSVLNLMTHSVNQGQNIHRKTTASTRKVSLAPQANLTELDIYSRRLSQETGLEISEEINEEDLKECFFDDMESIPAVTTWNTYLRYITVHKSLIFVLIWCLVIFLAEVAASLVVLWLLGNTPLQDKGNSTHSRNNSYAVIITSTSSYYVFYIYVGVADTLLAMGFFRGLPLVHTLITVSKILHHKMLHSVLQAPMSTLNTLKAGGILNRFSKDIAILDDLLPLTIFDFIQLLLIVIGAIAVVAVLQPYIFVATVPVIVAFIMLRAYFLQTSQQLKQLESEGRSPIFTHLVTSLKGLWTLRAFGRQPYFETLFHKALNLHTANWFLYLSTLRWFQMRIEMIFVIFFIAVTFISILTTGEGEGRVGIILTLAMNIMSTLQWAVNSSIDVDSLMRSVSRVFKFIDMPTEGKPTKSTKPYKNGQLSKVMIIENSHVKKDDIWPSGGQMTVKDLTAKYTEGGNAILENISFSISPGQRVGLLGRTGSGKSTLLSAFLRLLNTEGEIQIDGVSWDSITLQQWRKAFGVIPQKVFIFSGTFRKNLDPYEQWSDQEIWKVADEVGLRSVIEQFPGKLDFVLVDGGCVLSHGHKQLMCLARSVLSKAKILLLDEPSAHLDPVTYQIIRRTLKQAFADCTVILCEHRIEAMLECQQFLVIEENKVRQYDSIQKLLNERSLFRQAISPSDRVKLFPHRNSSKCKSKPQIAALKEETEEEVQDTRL

As for `CC(C)(C)c1cc(C(C)(C)C)c(NC(=O)c2c[nH]c3ccccc3c2=O)cc1O` [Vx-770, ivacaftor], the “stimulation of open probability” value (0.05x saturated (~3 nM) Vx-770 (20-fold dilution of 1x stock), 2 mM ATP) is reported as ~ 4 fold. The “reversibility of effects on channel gating” value (following washout of 0.05x saturated Vx-770) is listed as “fully reversible”. Also, under setting [1], the “time of switch back to low-activity gating after drug removal” value was ~ 5 min and the “time of switch from low- to high-activity gating after initiation of drug exposure” value was ~ 3 min.
